The results in this text go back to publication PMC12116762, “Topobexin targets the Topoisomerase II ATPase domain for beta isoform-selective inhibition and anthracycline cardioprotection” (Nature Communications, 2025).

Values joined by “and” are separate entries in the source; they are usually repeats but may differ in a detail not shown here. Identical values can stand only once.

The IC50 is the concentration that gives 50% inhibition. In general, remaining activity refers to the activity still measured, relative to the control.

The test system of one data set is γH2AX. In words: Acute DAU-induced DNA damage (γH2AX) in rabbit LV myocardium. The format is in vivo. Further details: γH2AX in LV myocardium: scale not given here. The conditions noted are these: for γH2AX in LV myocardium: individual animals. The method, then: For the determination of γH2aX protein in in vivo experiments, pulverized rabbit LV samples were homogenized in commercial 1× SDS Lysis Buffer (PhosphoSolutions) with phosphatase and protease inhibitor solutions (Thermo Fisher Scientific and Roche, respectively) and boiled at 95 °C for 10 min. Protein concentrations were assessed by the BCA Protein Assay Kit (Sigma-Aldrich), and 85 μg of protein were loaded into Mini-PROTEAN 12% TGX Precast Stain-free Gel (Bio-Rad). After separation, the proteins were transferred onto a nitrocellulose membrane using a Trans-Blot Turbo System (all Bio-Rad). Mouse monoclonal anti-γH2AX (1:800, ab26350, Abcam) was used as the primary antibody, and horseradish peroxidase-conjugated goat anti-mouse immunoglobulin (1:1000, P044701, DAKO) was used as the secondary antibody. The BM Chemiluminescence Blotting Substrate (Roche) and Fusion Solo S coupled with CCD camera (Vilber) were used for signal detection.
Rabbits (n = 24) were divided equally into four groups (n = 6 in each) receiving a single dose as follows: DAU (3 mg/kg, i.v. bolus), saline (1 ml/kg, i.v., the control group), topobexin (9) alone (10 mg/kg, prepared and administered as describe above in the pharmacokinetic study, i.e., in 20 min i.v. infusion) and the combination group (topobexin (9) 10 mg/kg via 20 min i.v. infusion followed by DAU 3 mg/kg as i.v. bolus into the contralateral ear 40 min after the end of topobexin (9) infusion). Based on preliminary data, the experiment was completed 90 min after administration of DAU or saline. The heart was excised and γH2AX as a marker of DNA damage was determined in myocardial homogenates using Western blotting as described above.

A further data set deals with T1, TOP2B C88Y (Homo sapiens, UniProt Q02880, C93Y).
T1 construct: Using recombinant full-length human TOP2A and TOP2B enzymes; YFP (N, cleaved yes); made in house; host or cells: HEK293F
In words: ATPase activity of TOP2B C88Y mutant. The format is biochemical. The conditions noted are these: for effect of C88Y mutation in TOP2B on inhibition: vs TOP2B WT. On the procedure: The human topoisomerase II decatenation assay was performed to determine the inhibitory effects of BNS-22 and new compounds as previously described with minor modifications[14],[36]. The assay was performed using recombinant human TOP2A or TOP2B generated using the HEK293F YFP-tag expression system as previously described[18],[19],[36]. Briefly, plasmids encoding YFP-TOP2A or YFP-TOP2B were transfected into HEK293F cells (Catalog number 11625019, Thermofisher Scientific), and TOP2 proteins were isolated from cell lysates by anti-YFP nanobody affinity chromatography. After elution by TEV protease cleavage, TOP2 proteins were FPLC purified by sequential cation exchange and size exclusion chromatography. Plasmid encoding TOP2B C88Y was generated by round-the-horn PCR mutagenesis and the sequence was verified by full-plasmid sequencing. Purified TOP2 proteins were stored in a storage buffer containing 20 mM HEPES pH 7.5, 500 mM NaCl, 0.5 mM TCEP, 25% (v/v) glycerol at -80 °C. For decatenation assays, purified TOP2 proteins were incubated with 200 ng kDNA (Topogen) in a reaction buffer containing 50 mM Tris−HCl (pH 8), 100 mM NaCl, 10 mM MgCl2, 0.5 mM DTT, 2 mM ATP, 0.1 mM tris(2-carboxyethyl)phosphine (TCEP), 5% (v/v) glycerol, 70 μg/mL bovine serum albumin, and 1/10 volume of each compound diluted in 10% DMSO (final DMSO concentration 1%) for 40 min at 37 °C. The reaction was then stopped by the addition of gel loading buffer (0.5 volumes of 60% (w/v) glycerol, 60 mM EDTA, 20 mM Tris−HCl (pH 7.5), 0.5 mg/mL bromophenol blue) and the samples were placed on ice. Reaction products were resolved by agarose gel electrophoresis in TBE buffer containing GelRed stain (Biotium). Gels were visualized using an iBright CL1000 (Thermofisher Scientific). Band intensities were quantified using FIJI, and the signal of the treated samples was normalized to the value of the control (untreated sample; 100%) present on the same gel. The normalized signal of three independent measurements was then expressed as mean ± SD. Each presented data point was obtained from distinct sample. Normalized values were plotted as a function of inhibitor concentration to determine IC50 values by nonlinear regression with variable slope using Prism 9 (GraphPad).
Topoisomerase proteins were diluted to 500 nM in storage buffer containing 20 mM HEPES pH 7.5, 500 mM NaCl, 0.5 mM TCEP, 25% glycerol, and 0.2 mg/mL BSA prior to use. A coupled assay was used to measure TOP2-catalyzed ATP hydrolysis in vitro[37] in Costar 96-well plates (Corning Incorporated). […] Reaction plates were pre-warmed to 30 °C for 5 min and ATP was added last to initiate the reaction. The reaction plate was placed in a CLARIOstarPlus plate reader (BMG Labtech) to measure NADH fluorescence at 30 °C every 30 s over 120 cycles using a 340-60 excitation filter and a 480-100 emission filter. Background fluorescence signals calculated from wells containing no ATP were subtracted from each measurement. The slope of NADH fluorescence decay in each well was calculated using the MARS software (BMG Labtech) and reaction wells that lacked topoisomerase inhibitor to account for photobleaching of NADH fluorescence served as background subtraction. Each presented data point was obtained from distinct sample. Values were normalized to untreated controls and plotted as a function of inhibitor concentration to determine IC50 values using Prism 9 (GraphPad).

T1 sequence (Q02880 1-1621 isoform Q02880-2 C88Y): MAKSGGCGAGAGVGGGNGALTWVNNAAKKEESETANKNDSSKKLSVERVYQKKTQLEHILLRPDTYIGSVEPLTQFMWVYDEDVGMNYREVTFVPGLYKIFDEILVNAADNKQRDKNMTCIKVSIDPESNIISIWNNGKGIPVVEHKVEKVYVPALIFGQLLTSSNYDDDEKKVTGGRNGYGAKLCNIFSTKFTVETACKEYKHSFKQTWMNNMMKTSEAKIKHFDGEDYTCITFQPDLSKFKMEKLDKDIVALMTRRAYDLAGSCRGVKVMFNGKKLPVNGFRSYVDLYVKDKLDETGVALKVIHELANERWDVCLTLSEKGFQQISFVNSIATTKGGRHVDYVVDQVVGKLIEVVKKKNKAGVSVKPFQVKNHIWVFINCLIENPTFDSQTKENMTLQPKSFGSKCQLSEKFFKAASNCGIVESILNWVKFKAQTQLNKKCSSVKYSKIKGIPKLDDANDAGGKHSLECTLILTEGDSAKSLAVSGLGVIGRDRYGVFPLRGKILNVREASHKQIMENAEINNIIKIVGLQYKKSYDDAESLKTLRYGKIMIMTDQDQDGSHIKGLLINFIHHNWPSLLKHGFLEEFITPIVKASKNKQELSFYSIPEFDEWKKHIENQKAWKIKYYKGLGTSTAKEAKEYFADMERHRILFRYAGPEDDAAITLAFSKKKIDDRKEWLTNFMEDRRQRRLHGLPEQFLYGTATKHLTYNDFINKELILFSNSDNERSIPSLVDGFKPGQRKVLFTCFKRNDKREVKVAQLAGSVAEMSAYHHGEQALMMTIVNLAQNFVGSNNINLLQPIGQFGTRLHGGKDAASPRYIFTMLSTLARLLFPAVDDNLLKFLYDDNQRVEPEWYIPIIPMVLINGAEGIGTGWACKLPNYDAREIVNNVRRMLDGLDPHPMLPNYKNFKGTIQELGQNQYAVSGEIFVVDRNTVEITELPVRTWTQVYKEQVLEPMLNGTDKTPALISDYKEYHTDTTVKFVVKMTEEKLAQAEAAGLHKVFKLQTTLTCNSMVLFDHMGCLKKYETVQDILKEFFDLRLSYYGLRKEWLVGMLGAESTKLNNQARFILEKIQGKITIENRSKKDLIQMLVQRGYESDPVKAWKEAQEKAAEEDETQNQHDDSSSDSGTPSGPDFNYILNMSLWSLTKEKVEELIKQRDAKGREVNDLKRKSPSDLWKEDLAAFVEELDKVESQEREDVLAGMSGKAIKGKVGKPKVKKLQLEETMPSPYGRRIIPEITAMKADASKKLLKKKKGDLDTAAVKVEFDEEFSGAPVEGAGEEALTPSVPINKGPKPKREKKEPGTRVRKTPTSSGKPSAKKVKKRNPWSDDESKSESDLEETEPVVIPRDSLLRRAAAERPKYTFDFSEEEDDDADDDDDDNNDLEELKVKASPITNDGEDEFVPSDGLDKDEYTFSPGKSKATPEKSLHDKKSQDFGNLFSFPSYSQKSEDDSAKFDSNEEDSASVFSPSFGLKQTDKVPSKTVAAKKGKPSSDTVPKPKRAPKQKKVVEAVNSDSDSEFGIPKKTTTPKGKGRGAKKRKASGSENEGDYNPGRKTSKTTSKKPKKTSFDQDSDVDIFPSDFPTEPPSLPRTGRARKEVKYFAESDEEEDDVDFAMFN

On to `CCCc1cc(=O)oc2c(C(=O)N3CCCc4ccccc43)c(OCCN3CCN(C)CC3)ccc12` [topobexin (9)], for which the “DAU-induced DNA damage (γH2AX) in LV myocardium” value in the data set with γH2AX (10 mg/kg before DAU 3 mg/kg, 1.5 h after DAU) was “effectively prevent induction of DNA damage”. Also, the “γH2AX in LV myocardium” value in the data set on γH2AX (Topobexin alone 10 mg/kg) is 1.55 and 1.42 and 1.45 and 1.03 and 1.17 and 1.33. Also, the “γH2AX in LV myocardium” value with γH2AX (Topobexin+DAU) was 1.79 and 1.30 and 1.64 and 0.82 and 1.38 and 2.72. Further, at TOP2B C88Y, the IC50 was 1880 nM and the “effect of C88Y mutation in TOP2B on inhibition” value is on record as “conferred significant resistance to inhibition”. At TOP2B C88Y (0.0625 μM, independent replicates, normalized to 0 drug), this compound showed a remaining activity at 0.0625 µM of 98.2%. The compound also had a remaining activity at 0.125 µM on TOP2B C88Y (0.125 μM, independent replicates, normalized to 0 drug) of 97.9%. Also, on TOP2B C88Y (0.25 μM, independent replicates, normalized to 0 drug), the remaining activity at 0.25 µM was 95.9%. The remaining activity at 0.5 µM on TOP2B C88Y (0.5 μM, independent replicates, normalized to 0 drug) was found to be 84.7%. In addition, the remaining activity at 1 µM at TOP2B C88Y (1 μM, independent replicates, normalized to 0 drug) was determined as 69.3%. The compound further registered a remaining activity at 2 µM on TOP2B C88Y (2 μM, independent replicates, normalized to 0 drug) of 43.5%. The remaining activity at 4 µM at TOP2B C88Y (4 μM, independent replicates, normalized to 0 drug) was determined as 18.5%. The same compound returned a remaining activity at 8 µM on TOP2B C88Y (8 μM, independent replicates, normalized to 0 drug) of 6.37%.

`COc1cccc2c1C(=O)c1c(O)c3c(c(O)c1C2=O)C[C@@](O)(C(C)=O)C[C@@H]3O[C@H]1C[C@H](N)[C@H](O)[C@H](C)O1` [DAU, daunorubicin, reference compound]: in the data set on γH2AX (DAU 3 mg/kg alone, 1.5 h), the “γH2AX in LV myocardium” value is 10.11 and 5.83 and 6.97 and 6.98 and 3.35 and 7.46.

On to `CCCc1cc(=O)oc2c(C(=O)N3CCCc4ccccc43)c(OC)cc(OC)c12` [BNS-22], for which, at TOP2B C88Y, half-maximal inhibition (IC50) was put at 1550 nM and the “effect of C88Y mutation in TOP2B on inhibition” value is listed as “did not alter inhibition”.
